Source: publication PMC8072580, “Predicting Pharmacokinetic Properties of Potential Anticancer Agents via Their Chromatographic Behavior on Different Reversed Phase Materials” (International Journal of Molecular Sciences, 2021)
Read-outs that look alike come from different tables or passages of the source.

Legend:
[1] = Micellar liquid chromatography (MLC), ODS-2 column, Brij 35 effluent: chromatographic lipophilicity; type: physicochemical; conditions: pH 7.4, ODS-2 column, 25 °C
Description: There are several theories that describe the effect of the concentration of the surfactant in the effluent on the retention of the solute in MLC [23]. The following Foley’s equation is best known in lipophilicity studies:(2) 1/k=1/km+KAM/km[M] where [M] is the total concentration of the surfactant in the mobile phase minus CMC; KAM is the constant that describes solute-micelle binding; and km is the solute retention parameter at the micellar concentration of zero, i.e., when the concentration of the surfactant monomer is equal to CMC. The KAM and km parameters can be evaluated from the slope and intercept of the experimental 1/k vs. [M] relationships.
Equation (2) describes a linear dependence between decreasing retention and increasing micelle concentration. This equation is valid for aqueous solutions of surfactant or mobile phases with the same concentrations of the organic modifier. The micellar retention parameter, log km, is considered analogous to the log kw parameter evaluated in RPLC. According to the information presented above, this parameter is considered to be a lipophilicity descriptor, and Equation (2) is a simple way to indirectly determine the lipophilic properties of compounds. It is postulated that retention in micellar chromatography depends on hydrophobic (lipophilic), electronic, and steric features of the compounds in a similar way as has been noted concerning pharmacokinetic phenomena. The additional similarity results from the fact that the phospholipids, cholesterol, fatty acids, and triglycerides included in the extracellular and intracellular fluids also form micelles with proteins.
(§1) In our investigations, the micellar retention factors were used to calculate the log km parameters using Equation (2) (Table 2). For all of the compounds 1-19, the relationships of 1/k vs. [M] were obtained with very good linearity, confirming that Foley’s equation correctly describes the effect of the concentration of the surfactant in the effluent on the retention of the solute. In our studies, the micellar log km parameters for three pharmacologically active sets of compounds 1-6, 7-14, and 15-19 and the log k factors for solutes 15-19 obtained on IAM and end-capped ODS stationary phases were determined experimentally. All these retention factors, together with the log kw values for compounds 1-14 obtained in our earlier investigations on IAM and end-capped ODS stationary phases, were used as lipophilicity descriptors in the QSARs methodology to predict the pharmacokinetic descriptors of the compounds that were tested.
(§2) Shimadzu Vp (Shimadzu, Izabelin, Polska) liquid chromatographic system was used in HPLC measurements. It was equipped with an LC 10AT pump, SPD 10A UV–Vis detector, SCL 10A system controller, CTO-10 AS chromatographic oven, and Rheodyne injector valve with a 20 μL loop. As the stationary phases, 3 different revered-phase materials were applied: Spherisorb ODS-2 column, 125 × 4 mm i.d., 5 μm (Merck, Lublin, Poland), Regis IAM.PC.DD2 column, 100 × 4.6 mm i.d., 10 μm (Morton Grove, Illinois, USA), and Purosphere RP-18e column, 125 × 4 mm i.d., 5 μm (Merck, Lublin, Poland).
In the MLC technique with an ODS-2 column, buffered Brij 35 mixtures (0.15; 0.125, 0.10, and 0.075 mol/L) with 7% (v/v) addition of isopropanol were used as mobile phases. The buffer was prepared from 0.01 mol/L solutions of Na2HPO4 and citric acid, and the pH 7.4 value was fixed before mixing with an organic modifier. The flow rate was 1 mL/min. Buffered acetonitrile mixtures were used as effluents with the IAM column. Acetonitrile concentration, expressed as a volume fraction, was changed in the range of 0.2–0.5, with the constant step of 0.1. The flow rate was 1.3 mL/min. Acetonitrile concentration was changed in the range of 0.3–0.6 with the RP-18e column, with the constant step of 0.1 and flow rate of 0.1 mL/min. As solutes tested there were used 19 newly designed structurally related compounds. […]

[2] = End-capped ODS (RP-18e) column chromatography: log kw,ODS; type: physicochemical; conditions: acetonitrile 0.3-0.6, 25 °C
Description: as §1, §2
(§3) In the MLC technique with an ODS-2 column, buffered Brij 35 mixtures (0.15; 0.125, 0.10, and 0.075 mol/L) with 7% (v/v) addition of isopropanol were used as mobile phases. The buffer was prepared from 0.01 mol/L solutions of Na2HPO4 and citric acid, and the pH 7.4 value was fixed before mixing with an organic modifier. The flow rate was 1 mL/min. Buffered acetonitrile mixtures were used as effluents with the IAM column. Acetonitrile concentration, expressed as a volume fraction, was changed in the range of 0.2–0.5, with the constant step of 0.1. The flow rate was 1.3 mL/min. Acetonitrile concentration was changed in the range of 0.3–0.6 with the RP-18e column, with the constant step of 0.1 and flow rate of 0.1 mL/min. As solutes tested there were used 19 newly designed structurally related compounds. Samples were dissolved in acetonitrile c.a. 0.005 mg/mL. The compounds were detected under UV light at λmax 254 nm. All measurements were carried out at a constant temperature (25 °C). The dead time values were measured from non-retained compound (e.g., sodium chloride) peaks. All reported k values are the average of at least 3 independent measurements.

[3] = Immobilized artificial membrane (IAM.PC.DD2) chromatography: log kw,IAM; type: physicochemical; conditions: IAM.PC.DD2 column, buffered acetonitrile 0.2-0.5, 25 °C
Description: as §1, §2, §3

[4] = design: method as in PMID 31864156; conditions: end-capped ODS column, aqueous acetonitrile; cited from earlier work
[5] = design: method as in PMID 31864156; conditions: IAM.PC.DD2 column, buffered acetonitrile; cited from earlier work
[6] = system: human cancer cells; design: method as in PMID 31864156, PMID 16545495, PMID 25528370; conditions: cited from earlier work
[7] = 0.075 M Brij 35, 7% isopropanol
[8] = 0.125 M Brij 35, 7% isopropanol

SMILES	k (MLC retention factor) [1, 7]	k (MLC retention factor) ([1]; 0.1 M Brij 35, 7% isopropanol)	k (MLC retention factor) [1, 8]	k (MLC retention factor) ([1]; 0.15 M Brij 35, 7% isopropanol)	log kw,ODS [2]	log kw,IAM [3]	log kw,ODS [4]	log kw,IAM [5]	antiproliferative effects in cancer cells compared with normal cells [6]
CCOC(=O)c1nnc2n(c1=O)CCN2c1ccccc1 [Compound 15]	2.09	1.90	1.81	1.84	1.21	0.48			
CC(C)c1nnc2n(c1=O)CCN2c1ccc(Cl)cc1 [Compound 5]	41.53	33.76	26.18	24.10			2.32 [19]	1.39 [19]	
CCOC(=O)c1nnc2n(c1=O)CCN2c1ccc(Cl)c(Cl)c1 [Compound 19]	24.39	18.98	14.97	14.81	3.24	3.36			clearly higher antiproliferative effects in cancer cells than in normal cells
CC(C)c1nnc2n(c1=O)CCN2c1ccccc1 [Compound 1]	13.73	12.03	10.47	10.53			1.59 [19]	0.76 [19]	
COc1ccccc1N1CCn2c1nnc(C(F)(F)F)c2=O [Compound 10]	5.89	5.40	5.04	4.79			1.65 [19]	0.67 [19]	clearly higher antiproliferative effects in cancer cells than in normal cells
Cc1ccc(N2CCn3c2nnc(C(C)C)c3=O)cc1 [Compound 2]	25.51	21.45	18.25	17.34			2.01 [19]	1.05 [19]	
CC(C)c1nnc2n(c1=O)CCN2c1cccc(Cl)c1 [Compound 4]	39.84	31.65	24.39	22.52			2.38 [19]	1.49 [19]	
CCOC(=O)c1nnc2n(c1=O)CCN2c1ccc(Cl)cc1 [Compound 18]	9.94	8.48	7.53	7.75	1.92	1.12			
O=c1c(C(F)(F)F)nnc2n1CCN2c1cccc(Cl)c1 [Compound 12]	36.90	29.09	22.17	19.83			2.43 [19]	1.66 [19]	
O=c1c(C(F)(F)F)nnc2n1CCN2c1ccccc1Cl [Compound 11]	10.61	9.36	8.27	7.66			1.86 [19]	0.88 [19]	clearly higher antiproliferative effects in cancer cells than in normal cells
O=c1c(C(F)(F)F)nnc2n1CCN2c1ccc(Cl)c(Cl)c1 [Compound 14]	59.61	44.28	32.68	28.56			2.96 [19]	2.29 [19]	
O=c1c(C(F)(F)F)nnc2n1CCN2c1ccc(Cl)cc1 [Compound 13]	41.71	32.28	25.32	22.45			2.40 [19]	1.58 [19]	
CC(C)c1nnc2n(c1=O)CCN2c1ccccc1Cl [Compound 3]	8.98	8.18	7.46	7.20			1.42 [19]	0.65 [19]	
CC(C)c1nnc2n(c1=O)CCN2c1ccc(Cl)c(Cl)c1 [Compound 6]	60.81	46.76	34.01	29.82			2.68 [19]	1.67 [19]	
Cc1ccc(N2CCn3c2nnc(C(F)(F)F)c3=O)cc1 [Compound 9]	25.67	21.44	17.64	16.14			2.16 [19]	1.25 [19]	
CCOC(=O)c1nnc2n(c1=O)CCN2c1ccc(C)cc1 [Compound 16]	4.49	4.04	3.81	3.75	2.80	1.93			
